The numbers were not newly measured in patent US12018060B2 (HANMI PHARM CO., LTD., priority 2014, dated 2024), which cites them from elsewhere.

For this series the following is noted: after one year of administration.

As for `CCCCCCCCCCC[C@@H](C[C@@H]1OC(=O)[C@H]1CCCCCC)OC(=O)[C@H](CC(C)C)NC=O` [Orlist®, Orlistat], the body weight decrease result is on record as “about 4 kg”.
